Measurements published in ChEMBL document CHEMBL1154668, “Design and synthesis of 6-oxo-1,6-dihydropyridines as CDK5 inhibitors” (Bioorg Med Chem Lett, 2009).

Legend:
[1] = molecular target: Cyclin-dependent kinase 5/CDK5 activator 1 (Homo sapiens, UniProt Q00535); experiment: Inhibition of human CDK5/p25 assessed as histone h1 phosphorylation in presence of ATP; assay type: protein-complex assay
Homo sapiens = organism: Homo sapiens; experiment: Selectivity for human CDK5/p25 over human CDK2/cyclin E2
Brain = experiment: Drug uptake in rat brain at 2 mg/kg, iv; assay type: ADME, organism-based; design: dose 2 mg/kg, route intravenous; conditions: in vivo

Sequence of Cyclin-dependent kinase 5/CDK5 activator 1 (Q00535 whole entry): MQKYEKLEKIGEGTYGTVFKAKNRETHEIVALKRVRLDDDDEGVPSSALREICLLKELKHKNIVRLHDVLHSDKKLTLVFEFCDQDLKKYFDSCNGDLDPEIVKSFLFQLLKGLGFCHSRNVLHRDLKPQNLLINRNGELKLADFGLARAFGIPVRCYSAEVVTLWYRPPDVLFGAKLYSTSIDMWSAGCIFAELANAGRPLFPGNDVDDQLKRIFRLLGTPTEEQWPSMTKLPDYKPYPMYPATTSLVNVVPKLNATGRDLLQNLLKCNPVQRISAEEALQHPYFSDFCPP
Sequence of Cyclin-dependent kinase 5/CDK5 activator 1 (Q15078 whole entry, further chain): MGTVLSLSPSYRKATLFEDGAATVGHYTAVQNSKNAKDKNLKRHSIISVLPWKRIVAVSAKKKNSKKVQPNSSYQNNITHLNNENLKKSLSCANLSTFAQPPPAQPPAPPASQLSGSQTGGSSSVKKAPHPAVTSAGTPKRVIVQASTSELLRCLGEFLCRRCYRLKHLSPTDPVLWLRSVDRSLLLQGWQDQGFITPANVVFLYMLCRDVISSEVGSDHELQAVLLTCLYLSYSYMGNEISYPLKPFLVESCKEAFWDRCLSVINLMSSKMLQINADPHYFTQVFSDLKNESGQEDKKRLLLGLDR

| Compound | IC50 [1] | fold change (FC) (Homo sapiens) | Drug uptake (Brain) |
| --- | --- | --- | --- |
| CCOC(=O)c1cc(-c2csc(-c3ccncc3)n2)c(=O)[nH]c1CC | 4.1 nM |  |  |
| CCOC(=O)c1cc(-c2csc(-c3ccncc3)n2)c(=O)[nH]c1COCc1ccccc1 | 779 nM |  |  |
| CCOC(=O)c1cc(-c2csc(-c3ccncc3)n2)c(=O)[nH]c1C | 131 nM |  |  |
| CCN(CC)CCOC(=O)c1cc(-c2csc(-c3ccncc3)n2)c(=O)[nH]c1C(C)C | 53 nM |  |  |
| CCOC(=O)c1cc(-c2csc(-c3ccncc3)n2)c(=O)[nH]c1C(F)(F)F | 11500 nM |  |  |
| CCOC(=O)c1cc(-c2csc(-c3ccnc(OC)c3)n2)c(=O)[nH]c1C(C)C | 672 nM |  |  |
| CC(C)c1[nH]c(=O)c(-c2csc(-c3ccncc3)n2)cc1C(=O)OC1CCN(C)CC1 | 647 nM |  |  |
| CCCc1[nH]c(=O)c(-c2csc(CS(=O)(=O)c3ccccc3)n2)cc1C(=O)OCC | 1.4 nM | 70 |  |
| CCOC(=O)c1cc(-c2csc(-c3ccnc(NCC(C)C)c3)n2)c(=O)[nH]c1C | 14 nM |  |  |
| CCCc1[nH]c(=O)c(-c2csc(-c3ccncc3)n2)cc1C(=O)OCC | 55 nM |  |  |
| CCOC(=O)c1cc(-c2csc(-c3ccncc3)n2)c(=O)[nH]c1C1CC1 | 198 nM |  |  |
| CCOC(=O)c1cc(-c2csc(CS(=O)(=O)c3ccccc3)n2)c(=O)[nH]c1COCc1ccccc1 | 5.3 nM | 70 |  |
| CC(C)c1[nH]c(=O)c(-c2csc(-c3ccncc3)n2)cc1C(=O)OC1CCCN(C)C1 (stereo not drawn) | 73 nM |  |  |
| CCN(CC)CCCOC(=O)c1cc(-c2csc(-c3ccncc3)n2)c(=O)[nH]c1C(C)C | 47 nM |  |  |
| CCOC(=O)c1cc(-c2csc(CS(=O)(=O)c3ccccc3)n2)c(=O)[nH]c1C | 3.3 nM | 70 | 44 ng/g |
| CCOC(=O)c1cc(-c2csc(-c3ccnc(N)c3)n2)c(=O)[nH]c1C | 20 nM |  |  |
| CC(C)c1[nH]c(=O)c(-c2csc(-c3ccncc3)n2)cc1C(=O)OCCc1ccccc1 | 119 nM |  |  |
| CC(C)c1[nH]c(=O)c(-c2csc(-c3ccncc3)n2)cc1C(=O)OCCN1CCCC1 | 112 nM |  |  |
| CCOC(=O)c1cc(-c2csc(-c3ccnc(NC)c3)n2)c(=O)[nH]c1C(C)C | 28 nM |  |  |
| CCN(CC)CC(C)OC(=O)c1cc(-c2csc(-c3ccncc3)n2)c(=O)[nH]c1C(C)C (stereo not drawn) | 36 nM |  |  |
| CCOC(=O)c1cc(-c2csc(-c3ccncc3)n2)c(=O)[nH]c1C(C)C | 157 nM |  | 4640 ng/g |
| CCOC(=O)c1cc(-c2csc(-c3ccnc(NCCN(CC)CC)c3)n2)c(=O)[nH]c1C | 139 nM |  |  |
| CCOC(=O)c1cc(-c2csc(-c3ccnc(Cl)c3)n2)c(=O)[nH]c1C | 160 nM |  |  |
